Numbered stars: 1 amine (or outer) side, 2 acyl side, 3 side chain; on linkers, the order of the positions; unused ones are H or OH. Bridge positions count the residues as written; N and C are the ends. Peptide text beside a SMILES is read from it. Biphenyl(4,4'-CH2)2 = c1cc(-c2ccc(C[*:2])cc2)ccc1C[*:1]
Columns and labels:
m6A modification = experiment: m6A ELISA in cells; type: cell-based; settings: PC3 or DU145 cells, Fig. 5f
PCa cells = experiment: EdU labeling of cell proliferation; type: cell-based; settings: 15 μM peptide, EdU labeling 2 h
PC3 xenograft tumor = PC3 xenograft tumor model; type: in vivo, BALB/c nude mice; settings: for decrease of Ki67 in tumor (IHC) / increase of caspase-3 expression in tumor (IHC) / reduction in METTL3 expression in tumor (IHC) / reduction in m6A levels in tumor (IHC): 20 mg/kg peritumoral; for reduction in METTL3 expression in tumor (IHC) / reduction in m6A levels in tumor (IHC): compared to R9 and PBS groups; for average tumor mass relative to PBS group: 20 mg/kg, 10 days of treatment, Fig. S19c
PC3 or DU145 = experiment: Colony formation assay; type: cell-based; settings: 15 μM peptide, PC3 or DU145, n=3
METTL3 = METTL3 (Homo sapiens, UniProt Q86U44); experiment: Western blot of METTL3/METTL14 level and half-life; type: cell-based; settings: for METTL3 half-life: PC3 cells pre-treated with cycloheximide (CHX), WB, 25 μM over 12 h; for METTL3 (and METTL14) protein levels by WB: PC3 cells, RSM3 25 μM, 12 h
METTL3/METTL14 complex = METTL3/METTL14 complex (Homo sapiens, UniProt Q86U44); experiment: Co-Immunoprecipitation of METTL3 and METTL14; type: cell-based; settings: Co-IP, quantitative analysis, Fig. S11
[1] = Serum stability in 25% FBS; type: in vitro ADME, bovine; settings: 25% FBS (serum:buffer 1:3), pH 7.4
PC3 cells [2] = experiment: Annexin V-FITC flow cytometry apoptosis, PC3; type: cell-based; settings: 15 μM peptide
DU145 cells = experiment: Cell viability; type: cell-based; design: unit not given beside the values; settings: comparison experiment Fig. S17, unit not given
PC3 cells [3] = experiment: Flow cytometry cell cycle analysis, PC3; type: cell-based; settings: 15 µM, 12 h, PBS group ∼8.5%
ASPC-1 xenograft tumors = experiment: ASPC-1 xenograft tumor model; type: in vivo, mice; settings: 20 mg/kg, 10 days of treatment
PC3 cells [4] = experiment: Cell viability; type: cell-based; design: unit not given beside the values; settings: comparison experiment Fig. S17, unit not given
DU145 = experiment: Annexin V-FITC flow cytometry apoptosis, DU145; type: cell-based; settings: 15 μM peptide, PBS ∼5%
[5] = peri-tumoral injection 20 mg/kg every two days for two weeks

Chain of METTL3 (Q86U44 whole entry): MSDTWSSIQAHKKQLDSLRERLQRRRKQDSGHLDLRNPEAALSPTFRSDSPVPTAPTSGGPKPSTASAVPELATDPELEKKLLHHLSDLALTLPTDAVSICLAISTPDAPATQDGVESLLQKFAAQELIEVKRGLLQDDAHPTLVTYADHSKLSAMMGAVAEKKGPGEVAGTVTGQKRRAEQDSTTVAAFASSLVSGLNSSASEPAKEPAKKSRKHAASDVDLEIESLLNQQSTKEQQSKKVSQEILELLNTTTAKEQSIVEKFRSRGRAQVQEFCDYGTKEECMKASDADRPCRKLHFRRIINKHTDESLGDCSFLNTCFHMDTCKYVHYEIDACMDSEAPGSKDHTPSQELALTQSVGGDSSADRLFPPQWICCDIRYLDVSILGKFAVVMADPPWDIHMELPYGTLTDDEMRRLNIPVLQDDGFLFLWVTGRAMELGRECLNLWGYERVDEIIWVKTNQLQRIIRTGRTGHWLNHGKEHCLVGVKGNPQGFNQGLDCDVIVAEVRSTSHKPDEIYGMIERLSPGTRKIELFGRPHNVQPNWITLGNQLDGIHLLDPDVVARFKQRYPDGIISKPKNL
Chain of METTL3/METTL14 complex (Q86U44 whole entry, one chain of several): as the sequence (Q86U44 whole entry) above

CSCC[C@H](NC(=O)[C@H](CS)NC(=O)[C@H](CCCNC(=N)N)NC(=O)[C@H](CCCNC(=N)N)NC(=O)[C@H](CCCNC(=N)N)NC(=O)[C@H](CCCNC(=N)N)NC(=O)[C@H](CCCNC(=N)N)NC(=O)[C@H](CCCNC(=N)N)NC(=O)[C@H](CCCNC(=N)N)NC(=O)[C@H](CCCNC(=N)N)NC(=O)[C@H](CCCNC(=N)N)NC(=O)[C@@H](N)CCCNC(=N)N)C(=O)N[C@@H](CCC(=O)O)C(=O)N[C@@H](CC(C)C)C(=O)NCC(=O)N[C@@H](CCCNC(=N)N)C(=O)N[C@@H](CCC(=O)O)C(=O)N[C@@H](CS)C(=O)N[C@@H](CC(C)C)C(=O)N[C@@H](CC(N)=O)C(=O)N[C@@H](CC(C)C)C(=O)N[C@@H](Cc1c[nH]c2ccccc12)C(N)=O [RM3] (H-RRRRRRRRRRCMELGRECLNLW-NH2; N-terminus assumed)
m6A modification level relative to R9 and PBS treatment groups (m6A modification): ~20% | EdU signal relative to PBS control group (PCa cells): ~47.0% | decrease of Ki67 in tumor (IHC) (PC3 xenograft tumor): ~65% | increase of caspase-3 expression in tumor (IHC) (PC3 xenograft tumor): ~1.8 fold | reduction in METTL3 expression in tumor (IHC) (PC3 xenograft tumor): ~50% | reduction in m6A levels in tumor (IHC) (PC3 xenograft tumor): ~50% | tumor growth compared to R9 or PBS control groups (PC3 xenograft tumor; [5]): significant suppression of tumor growth | fold reduction in colony formation (PC3 or DU145): ~20 fold | METTL3 half-life (METTL3): dramatically reduced half-life

CSCC[C@@H]1NC(=O)[C@@H](NC(=O)[C@H](CCCNC(=N)N)NC(=O)[C@H](CCCNC(=N)N)NC(=O)[C@H](CCCNC(=N)N)NC(=O)[C@H](CCCNC(=N)N)NC(=O)[C@H](CCCNC(=N)N)NC(=O)[C@H](CCCNC(=N)N)NC(=O)[C@H](CCCNC(=N)N)NC(=O)[C@H](CCCNC(=N)N)NC(=O)[C@H](CCCNC(=N)N)NC(=O)[C@@H](N)CCCNC(=N)N)CSCc2ccc(cc2)-c2ccc(cc2)CSC[C@@H](C(=O)N[C@@H](CC(C)C)C(=O)N[C@@H](CC(N)=O)C(=O)N[C@@H](CC(C)C)C(=O)N[C@@H](Cc2c[nH]c3ccccc23)C(N)=O)NC(=O)[C@H](CCC(=O)O)NC(=O)[C@H](CCCNC(=N)N)NC(=O)CNC(=O)[C@H](CC(C)C)NC(=O)[C@H](CCC(=O)O)NC1=O [RSM3] (H-RRRRRRRRRRCMELGRECLNLW-NH2; linker 11-18 via Biphenyl(4,4'-CH2)2; N-terminus assumed)
reduction of METTL3-METTL14 interaction (METTL3/METTL14 complex): fifty | remaining at 6 h, 200 µM [1]: ~41.8% | m6A modification level relative to R9 and PBS treatment groups (m6A modification): ~20% | EdU signal relative to PBS control group (PCa cells): ~35.0% | decrease of Ki67 in tumor (IHC) (PC3 xenograft tumor): ~65% | increase of caspase-3 expression in tumor (IHC) (PC3 xenograft tumor): ~1.8 fold | reduction in METTL3 expression in tumor (IHC) (PC3 xenograft tumor): ~50% | reduction in m6A levels in tumor (IHC) (PC3 xenograft tumor): ~50% | average tumor mass relative to PBS group (PC3 xenograft tumor): ~37% | tumor growth compared to R9 or PBS control groups (PC3 xenograft tumor; [5]): significant suppression of tumor growth | tumor volume, fold smaller than controls (PC3 xenograft tumor; [5]): 2∼3 fold | fold reduction in colony formation (PC3 or DU145): ~20 fold | METTL3 half-life (METTL3): dramatically reduced half-life | METTL3 (and METTL14) protein levels by WB (METTL3): reduced | late-stage share of total apoptotic PC3 cells (PC3 cells [2]): ~90% | proportion of apoptotic cells, fold higher than RM3 (PC3 cells [2]): approximately 2 fold | cells that entered apoptosis, PC3 (PC3 cells [2]; PBS 4%): ~60% | IC50 in DU145, RSM3 vs STM2457 (DU145 cells): 33.6 ± 1.5 | cells arrested in sub-G1 phase, PC3 (PC3 cells [3]): ~29.2% | tumor weight, lighter than PBS- and R9-treated controls (ASPC-1 xenograft tumors): ~50% | IC50 in PC3, RSM3 vs STM2457 (PC3 cells [4]): 26.5 ± 1.2 | cells that entered apoptosis, DU145 (DU145): ~30%

STM2457 [reference compound]
average tumor mass relative to PBS group (PC3 xenograft tumor): 70% | METTL3 (and METTL14) protein levels by WB (METTL3): no influence | IC50 in DU145, RSM3 vs STM2457 (DU145 cells): 149.3 ± 10.1 | IC50 in PC3, RSM3 vs STM2457 (PC3 cells [4]): 95.5 ± 3.6

— doi:10.1101/2023.09.04.556216v2 (bioRxiv, 2023)
